# pEC50: −log10 of the molar value.
# Experiments:
# [1] = Solubility at equilibrium; format: physicochemical; settings: thermodynamic from solid; in the diluent, room temperature, n=1, HPLC quantification
# Description: Solubility of the test materials was evaluated on n=1 trial, following the procedure below:
# 2.5 mg of each compound for solubility testing were dissolved in 5 mL of the diluent, an initial concentration of 500 ug/mL. The mixture was first vortexed for 15 seconds to allow a good wetting of the API, then sonicated for 5 minutes to promote solubilisation. The vortex/sonication cycle was repeated 3 times. The suspension was stirred at room temperature using a magnetic stirrer at 300 rpm. This mixture is observed at 4 h, 24 h and 48 h to determine if the test compound has dissolved. At each time point if the compound is completely solubilised a further 5 mg of the test compound is added and the process repeated.
# When no more test compound will dissolve in the diluent, an aliquot of 0.5 mL of the suspension was withdrawn and centrifuged 3×2 min at 13400 rpm. The supernatant for HPLC quantification was filtered using 0.2 μm Pall Aerodisc Nylon 13 mm membrane and quantified by comparing to the calibration curve, using the method: column: Nucleodur C18 ISIS 3 μm 4.6×125 mm, Mobile Phase (CH3COOH 0.05% in H2O and ACN), Flow rate: 1 ml/min, Wavelength: λ=240 nm (IIa and IIc) or […] (IId), Injected volume: 10 μl, Gradient of concentration: from 30% B to 100% B in 6 min.
# [2] = target: recombinant human prostanoid EP2 receptor (Homo sapiens (Human), UniProt P43116); assay: Human prostanoid EP2 receptor cellular functional assay (cAMP, HTRF); format: cell-based
# Description: Test 1.2: Human Prostanoid EP2 Receptor Cellular Functional Assay
# […] CHO cells expressing the recombinant human prostanoid EP2 receptor were suspended in assay medium (HBSS buffer (Invitrogen) containing 20 mM HEPES (pH7.4) and 500 μM isobutyl-methylxanthine IBMX) and plated out to yield approximately 1×10^4 cells/well in a 96-well. Following this, cells were incubated with agonists for 30 min in the presence of the test compounds. For stimulated control measurements, separate assay wells contain 10 μM PGE2 (control specific agonist). All incubations were carried out at 37° C. in a 5% CO2 atmosphere. Following incubation, the amount of cAMP in each well was determined by HTRF method. The cells are lysed and the fluorescence acceptor (D2-labeled cAMP) and fluorescence donor (anti-cAMP antibody labeled with europium cryptate) are added. After 60 min at room temperature, the fluorescence transfer is measured at λ ex=337 nm and λ em=620 and 665 nm using a microplate reader (Rubystar, BMG).
# The cAMP concentration is determined by dividing the signal measured at 665 nm by that measured at 620 nm (ratio).
# The standard reference agonist PGE2 was tested at several concentrations to generate a concentration-response curve to determined EC50.
# Analysis and Expression of Results
# The results are expressed as a percent of control specific agonist response ((measured specific response/control specific agonist response)×100) obtained in the presence of the test compounds. The EC50 values (concentration producing a half-maximal specific response) were determined by non-linear regression analysis of the concentration-response curves generated with mean replicate values using Hill equation curve fitting (Y=D+[(A−D)/(1+(C/C50)nH)], where Y=specific response, D=minimum specific response, A=maximum specific response, C=compound concentration, and C50=EC50 and nH=slope factor). This analysis was performed using a software developed at Cerep (Hill software) and validated by comparison with data generated by the commercial software SigmaPlot® 4.0 for Windows® (© 1997 by SPSS Inc.).
# [3] = system: Laser-Induced Hypertensive Cynomolgus Monkey; assay: Intraocular pressure in laser-induced hypertensive cynomolgus monkey; format: in vivo; settings: 0.01% topical, 50 μl drop to glaucomatous eye once daily for 5 days; FIG. 1
# Description: Laser-Induced Hypertensive Cynomolgus Monkey
# Ten adult female cynomolgus monkeys, each weighing 3-5 kg, in which glaucoma had been induced unilaterally by diode laser photocoagulation of the mid-trabecular meshwork, were used in this study.
# Intraocular pressure (IOP) was measured at 0 hr (before drug administration) and then hourly until 6 hrs after drug administration on one baseline day, one vehicle-treatment day, and treatment days 1, 3, and 5 with 0.01% of compound II(d).
# Compound II(d) was tested in two groups of 4 monkeys for a total of 8 monkeys. Following one baseline day (untreated) and one vehicle-treatment day (50 μl (25 μl×2), drop of vehicle to the glaucomatous eye at 9:30 (a 50 μl drop (25 μl×2) of compound (II(d)) were topically applied to the glaucomatous eye only once daily at 9:30 am for 5 consecutive days.
# Slit-lamp examination for the detection of aqueous humor flare and cells was performed in a dark room before drug administration and at 1, 3 and 5 hrs after dosing on baseline day and at the same times on treatment days 1, 3 and 5.
# Two-tailed paired and unpaired t test and the ANOVA test were used for statistical analysis.
# Chain of recombinant human prostanoid EP2 receptor (P43116 whole entry): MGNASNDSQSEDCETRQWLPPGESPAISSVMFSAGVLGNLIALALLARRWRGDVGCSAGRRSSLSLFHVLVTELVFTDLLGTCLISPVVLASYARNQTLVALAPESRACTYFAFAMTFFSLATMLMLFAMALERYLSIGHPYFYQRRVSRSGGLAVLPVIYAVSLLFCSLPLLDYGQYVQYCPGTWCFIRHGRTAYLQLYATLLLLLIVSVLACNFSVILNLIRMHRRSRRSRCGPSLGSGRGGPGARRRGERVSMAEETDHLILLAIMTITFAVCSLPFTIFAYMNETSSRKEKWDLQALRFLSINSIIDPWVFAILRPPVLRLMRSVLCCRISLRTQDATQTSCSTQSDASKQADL
SMILES,solubility [1] [µg/mL],"pEC50 ([2]; CHO cells expressing recombinant human EP2, cAMP by HTRF, 30 min, 37° C., read-out: In vitro functional assay EP2 (h) EC50)",In vitro functional assay EP2 (h) % response ([2]; percent of control specific agonist response (10 μM PGE2)) [%],overall IOP reduction [3] [%]
"O=C(O)COc1cccc(CN(Cc2ccc(-n3cccn3)cc2)S(=O)(=O)c2cccnc2)c1 [PF-04217329, taprenepag, reference compound]",542,,,
"CCOC(=O)COc1ccc(F)c(NCc2cc(-c3cccc(F)c3)ccc2F)c1F [II(a), ethyl 2-[2,4-difluoro-3-[[2-fluoro-5-(3-fluorophenyl)phenyl]methylamino]phenoxy]acetate]",8120,,,
"COC(=O)COc1ccc(F)c(NCc2cc(-c3cccc(F)c3)ccc2F)c1F [II(c), Methyl 2-[2,4-difluoro-3-[[2-fluoro-5-(3-fluorophenyl)phenyl]methylamino]phenoxy]acetate]",6780,,,
"CC(C)OC(=O)COc1ccc(F)c(NCc2cc(-c3cccc(F)c3)ccc2F)c1F [II(d), Isopropyl 2-[2,4-difluoro-3-[[2-fluoro-5-(3-fluorophenyl)phenyl]methylamino]phenoxy]acetate]",711,< 6.52,44,22
